From ChEMBL document CHEMBL1137191, “Evaluation of pyrrolidin-2-imines and 1,3-thiazolidin-2-imines as inhibitors of nitric oxide synthase” (Bioorg Med Chem Lett, 2004)

What was measured:
[1] = target: T1, Nitric oxide synthase 3 (Homo sapiens) (UniProt P29474); assay: Ratio between Endothelial nitric oxide synthase and Inducible nitric oxide synthase
T1 sequence (whole entry): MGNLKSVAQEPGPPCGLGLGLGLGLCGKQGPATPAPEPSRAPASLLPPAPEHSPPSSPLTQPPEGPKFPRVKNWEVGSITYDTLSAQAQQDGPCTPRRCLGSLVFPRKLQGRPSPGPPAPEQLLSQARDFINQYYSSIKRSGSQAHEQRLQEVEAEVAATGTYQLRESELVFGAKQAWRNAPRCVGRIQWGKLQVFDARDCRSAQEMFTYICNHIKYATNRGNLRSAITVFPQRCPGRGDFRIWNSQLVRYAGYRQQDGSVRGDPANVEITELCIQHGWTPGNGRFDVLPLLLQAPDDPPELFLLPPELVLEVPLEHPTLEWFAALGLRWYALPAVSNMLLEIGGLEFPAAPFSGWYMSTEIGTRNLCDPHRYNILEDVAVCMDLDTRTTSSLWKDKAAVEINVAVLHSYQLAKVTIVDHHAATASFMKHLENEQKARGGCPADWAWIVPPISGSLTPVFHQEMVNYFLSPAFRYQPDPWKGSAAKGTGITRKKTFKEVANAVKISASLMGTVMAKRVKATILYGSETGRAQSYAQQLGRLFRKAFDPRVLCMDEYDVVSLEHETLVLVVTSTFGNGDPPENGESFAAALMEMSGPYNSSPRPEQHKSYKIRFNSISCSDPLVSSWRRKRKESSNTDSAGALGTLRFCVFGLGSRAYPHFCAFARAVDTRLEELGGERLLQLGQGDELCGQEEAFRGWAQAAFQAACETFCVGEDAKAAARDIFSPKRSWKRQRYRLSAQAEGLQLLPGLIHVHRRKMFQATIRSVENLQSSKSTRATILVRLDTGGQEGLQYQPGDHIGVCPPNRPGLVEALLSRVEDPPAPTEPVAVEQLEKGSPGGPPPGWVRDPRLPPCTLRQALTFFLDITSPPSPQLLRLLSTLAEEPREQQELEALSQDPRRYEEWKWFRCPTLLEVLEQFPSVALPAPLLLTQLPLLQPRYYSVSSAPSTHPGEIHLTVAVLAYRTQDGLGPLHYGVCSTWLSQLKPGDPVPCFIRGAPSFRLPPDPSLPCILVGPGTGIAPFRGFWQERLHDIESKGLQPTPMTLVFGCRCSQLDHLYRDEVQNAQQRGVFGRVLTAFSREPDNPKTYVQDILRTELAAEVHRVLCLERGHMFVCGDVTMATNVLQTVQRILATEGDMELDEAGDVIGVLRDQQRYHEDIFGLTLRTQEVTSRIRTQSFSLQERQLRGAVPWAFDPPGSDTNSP

Nitric oxide synthase 1 = Nitric oxide synthase 1 (Homo sapiens, UniProt P29475); assay: Inhibitory activity against Neuronal nitric oxide synthase
Nitric oxide synthase 1, sequence (P29475 whole entry): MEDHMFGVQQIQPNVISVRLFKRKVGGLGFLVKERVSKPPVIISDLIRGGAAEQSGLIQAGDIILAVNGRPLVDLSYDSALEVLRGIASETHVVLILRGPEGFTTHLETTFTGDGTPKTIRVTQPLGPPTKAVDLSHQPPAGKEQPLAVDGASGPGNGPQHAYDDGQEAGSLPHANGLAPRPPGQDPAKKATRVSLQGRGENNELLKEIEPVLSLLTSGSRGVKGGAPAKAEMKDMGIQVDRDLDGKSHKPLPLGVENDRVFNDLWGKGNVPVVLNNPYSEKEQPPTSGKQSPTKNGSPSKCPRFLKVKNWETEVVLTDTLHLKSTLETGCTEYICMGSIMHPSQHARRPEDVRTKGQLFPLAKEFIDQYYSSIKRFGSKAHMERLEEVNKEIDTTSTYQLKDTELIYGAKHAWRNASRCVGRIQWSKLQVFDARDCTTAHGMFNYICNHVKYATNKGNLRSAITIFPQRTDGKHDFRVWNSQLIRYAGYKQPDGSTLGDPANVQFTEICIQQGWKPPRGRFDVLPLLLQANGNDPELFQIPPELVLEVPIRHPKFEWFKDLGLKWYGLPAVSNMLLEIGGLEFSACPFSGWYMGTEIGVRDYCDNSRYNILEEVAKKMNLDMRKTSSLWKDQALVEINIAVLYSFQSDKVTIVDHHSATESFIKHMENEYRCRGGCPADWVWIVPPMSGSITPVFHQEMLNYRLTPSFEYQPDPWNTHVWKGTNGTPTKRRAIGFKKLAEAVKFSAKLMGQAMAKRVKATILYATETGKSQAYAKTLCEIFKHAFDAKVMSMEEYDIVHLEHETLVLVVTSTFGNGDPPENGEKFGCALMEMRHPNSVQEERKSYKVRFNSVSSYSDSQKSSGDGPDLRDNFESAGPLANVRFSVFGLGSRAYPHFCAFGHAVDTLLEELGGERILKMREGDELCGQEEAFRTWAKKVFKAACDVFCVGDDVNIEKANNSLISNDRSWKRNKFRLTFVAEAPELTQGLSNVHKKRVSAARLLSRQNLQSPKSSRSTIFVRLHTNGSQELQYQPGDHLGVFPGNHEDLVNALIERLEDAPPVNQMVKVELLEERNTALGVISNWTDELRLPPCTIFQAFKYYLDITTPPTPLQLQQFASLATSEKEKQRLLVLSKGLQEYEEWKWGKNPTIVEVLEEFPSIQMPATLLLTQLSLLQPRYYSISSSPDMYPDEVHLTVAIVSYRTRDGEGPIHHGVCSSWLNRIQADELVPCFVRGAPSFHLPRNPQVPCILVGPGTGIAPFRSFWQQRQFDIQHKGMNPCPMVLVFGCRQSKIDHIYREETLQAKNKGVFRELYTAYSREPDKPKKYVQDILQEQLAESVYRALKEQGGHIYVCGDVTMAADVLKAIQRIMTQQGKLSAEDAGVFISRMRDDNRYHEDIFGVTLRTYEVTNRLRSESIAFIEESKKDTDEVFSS

[2] = target: Nitric oxide synthase, inducible (Homo sapiens, UniProt P35228); assay: Inhibitory activity against Inducible nitric oxide synthase
Nitric oxide synthase, inducible, sequence (P35228 whole entry): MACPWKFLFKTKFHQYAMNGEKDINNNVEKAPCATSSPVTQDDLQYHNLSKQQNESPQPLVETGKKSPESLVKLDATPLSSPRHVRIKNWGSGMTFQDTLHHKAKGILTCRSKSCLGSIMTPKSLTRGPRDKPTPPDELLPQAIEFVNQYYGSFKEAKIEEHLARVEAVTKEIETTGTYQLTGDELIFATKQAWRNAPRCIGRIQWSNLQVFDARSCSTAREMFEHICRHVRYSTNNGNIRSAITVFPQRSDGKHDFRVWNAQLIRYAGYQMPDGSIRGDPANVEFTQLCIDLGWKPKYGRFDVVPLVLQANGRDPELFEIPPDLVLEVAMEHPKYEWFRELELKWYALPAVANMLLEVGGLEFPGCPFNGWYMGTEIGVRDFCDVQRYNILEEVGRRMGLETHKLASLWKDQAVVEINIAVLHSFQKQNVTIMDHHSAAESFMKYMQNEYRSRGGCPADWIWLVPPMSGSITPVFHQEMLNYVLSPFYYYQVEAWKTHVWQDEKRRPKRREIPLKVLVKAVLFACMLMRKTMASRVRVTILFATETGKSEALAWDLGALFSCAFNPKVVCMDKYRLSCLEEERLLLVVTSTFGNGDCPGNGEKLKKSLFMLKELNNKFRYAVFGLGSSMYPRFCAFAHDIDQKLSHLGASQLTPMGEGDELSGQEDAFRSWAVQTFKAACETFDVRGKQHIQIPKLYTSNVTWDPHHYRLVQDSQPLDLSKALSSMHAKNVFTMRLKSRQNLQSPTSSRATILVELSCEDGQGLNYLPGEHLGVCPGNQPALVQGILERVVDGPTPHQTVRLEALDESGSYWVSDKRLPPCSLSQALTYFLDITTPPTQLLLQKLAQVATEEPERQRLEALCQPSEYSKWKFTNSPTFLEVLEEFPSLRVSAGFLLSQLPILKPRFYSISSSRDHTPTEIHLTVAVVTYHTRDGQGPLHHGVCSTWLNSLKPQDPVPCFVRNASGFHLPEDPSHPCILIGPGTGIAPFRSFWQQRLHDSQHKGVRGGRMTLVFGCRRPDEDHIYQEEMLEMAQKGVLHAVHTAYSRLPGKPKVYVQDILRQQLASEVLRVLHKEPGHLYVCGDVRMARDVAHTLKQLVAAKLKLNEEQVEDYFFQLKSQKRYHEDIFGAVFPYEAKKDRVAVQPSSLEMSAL

Nitric oxide synthase 3 = target: T2, Nitric oxide synthase 3 (Homo sapiens, UniProt P29474); assay: Inhibitory activity against Endothelial nitric oxide synthase
T2 sequence (P29474 whole entry): T1 sequence (whole entry)

| SMILES | Ratio [1] | IC50 (Nitric oxide synthase 1) | IC50 [2] | IC50 (Nitric oxide synthase 3) |
| --- | --- | --- | --- | --- |
| CCC1N=C(N)CC1C (stereo unspecified) | 26 | 0.08 µM | 0.02 µM | 0.52 µM |
| CCC1CC(N)=NC1C (stereo unspecified) | 38 | 0.14 µM | 0.16 µM | 6.3 µM |
| NC1=NCCS1 | 1.2 | 1.8 µM | 0.9 µM | 1.1 µM |
| N=C1SCC2CCCCN12 (stereo unspecified) | – | > 50 µM | > 50 µM | > 50 µM |
| CCCC1CN=C(N)C1 (stereo unspecified) | 1.4 | 53 µM | 38.7 µM | 53 µM |
| CCCC1CC(N)=NC1CC (stereo unspecified) | 22 | 17.3 µM | 10.2 µM | 227 µM |
| CCCC1CC(N)=NC1C (stereo unspecified) | 8 | 27 µM | 13.1 µM | 104 µM |
| N=C1SCC2CCCN12 (stereo unspecified) | – | 14 µM | > 50 µM | > 50 µM |
| CCCCC1CSC(N)=N1 (stereo unspecified) | – | 13.2 µM | 5.2 µM | > 50 µM |
| CC1CN=C(N)C1 (stereo unspecified) | 13 | 0.8 µM | 0.2 µM | 2.6 µM |
| CCC1CN=C(N)C1C (stereo unspecified) | 65 | 0.61 µM | 0.93 µM | 60.6 µM |
| CC(C)C1CN=C(N)C1 (stereo unspecified) | 25 | 10.6 µM | 3.5 µM | 87.8 µM |
| CC1CN=C(N)C1C (stereo unspecified) | 7.2 | 0.61 µM | 1.2 µM | 8.7 µM |
| CC(=N)NCCCC[C@H](N)C(=O)O [L-NIL] | 3.7 | 17.5 µM | – | – |
| CC1CC(N)=NC1C (stereo unspecified) | – | 0.13 µM | 0.3 µM | 0.6 µM |
| NC1=NCCC1 | 1.1 | 9.6 µM | 4.1 µM | 4.6 µM |
| NC1=NCC(c2ccccc2)C1 (stereo unspecified) | – | > 50 µM | > 50 µM | > 50 µM |
| CCC1CN=C(N)C1 (stereo unspecified) | 27 | 2.6 µM | 0.5 µM | 14.5 µM |
| CC1CN=C(N)S1 (stereo unspecified) | – | > 50 µM | > 50 µM | > 50 µM |
| N=C1CCC2CCCCN12 (stereo unspecified) | – | > 50 µM | > 50 µM | > 50 µM |
| CC1CCN=C1N (stereo unspecified) | 1.2 | 0.9 µM | 1.5 µM | 1.8 µM |
| CC1CCC(N)=N1 (stereo unspecified) | 1.4 | 3.1 µM | 1.3 µM | 1.9 µM |
| CCC1CC(C)C(N)=N1 (stereo unspecified) | 0.24 | 2.4 µM | 23 µM | 5.5 µM |
| NC1=NC2CCCC2C1 (stereo unspecified) | – | 9.9 µM | > 50 µM | > 50 µM |
| NC1=NC(c2ccccc2)CS1 (stereo unspecified) | – | > 50 µM | > 50 µM | > 50 µM |
| CCCC1N=C(N)CC1C (stereo unspecified) | 24 | 4.8 µM | 2 µM | 49 µM |
| N=C1CCC2CCCN12 (stereo unspecified) | – | 9.6 µM | > 50 µM | 33 µM |
